Laboratory results published in publication PMC3577726 (PLoS ONE, 2013).
No end group written: not given here.

Assays:
Male C57BL/6J mice [1] = assay: Serum insulin concentration after intraperitoneal or oral treatment, with or without sitagliptin and exendin(9–39); format: in vivo, mouse; conditions: for Serum insulin concentration, i.p. 7 µg/kg alone / Serum insulin concentration, oral 10 µg/kg: blood 20 min later; for Serum insulin concentration, i.p. 7 µg/kg alone: four to six mice; for Serum insulin concentration, oral 10 µg/kg: 10 µg/kg orally, with or without sitagliptin and exendin(9–39)
Experimental: (§1) Male C57BL/6J mice (Jackson Laboratory, Bar Harbor, ME) were maintained in a specific pathogen-free facility under a 12 h-light, 12 h-dark cycle and were moved to a conventional facility for experiments at 6 to 8 weeks of age. All animal experiments were approved by the animal ethics committee of Kyushu University. Animals were anesthetized with sevoflurane and blood (maximally up to 100 µl) was collected from the orbital plexus of mice treated as indicated. Dipeptidyl peptidase (DPP)-IV inhibitor (Merck-Millipore, Billerica, MA) was added to the samples to a final concentration of 100 µM.
(B, C) Mice deprived of food for 5 h (blood glucose level, 103.5 mg/dl) were administered sitagliptin (1 µg/kg) or saline orally and then 30 min later were treated with ucOC or GlaOC intraperitoneally (7 µg/kg) (B) or orally (10 µg/kg) (C) in combination with intraperitoneal injection of exendin(9–39) (25 nmol/kg) or saline. […] All data are means ± SEM for four to six mice. *P < 0.05, **P < 0.01, †P = 0.06 versus control (open bar) or for the indicated comparisons (Student's t test).

Male C57BL/6J mice [2] = tested on: Male C57BL/6J mice
Experimental: as §1

STC-1 cells = assay: GLP-1 secretion from STC-1 cells (ELISA of culture supernatant); format: cell-based, mouse
Experimental: STC-1 cells (kindly provided from Dr. G. Tsujimoto, Kyoto University), a mouse enteroendocrine cell line were cultured under a humidified atmosphere of 5% CO2 at 37 °C in Dulbecco's modified Eagle's medium supplemented with 15% horse serum, 5% fetal bovine serum, penicillin (100 U/ml), and streptomycin (0.1 mg/ml). The cells were routinely passaged at 80 to 90% confluence.
STC-1 cells in a six-well plate were washed three times and then incubated with recombinant mouse ucOC or with GlaOC (ANA Spec, Fremont, CA) in Hanks' balanced salt solution for 60 min at 37 °C. The culture supernatants were then assayed for GLP-1 with ELISA kit (Shibayagi, Gunma, Japan).
Figure 2 OC-induced GLP-1 secretion in STC-1 cells. STC-1 cells were incubated for 60 min with vehicle (control) or the indicated concentrations of ucOC, GlaOC, or PMA. Data are expressed relative to the control value (33.1 pg per 1 × 10^5 cells) and are means ± SEM from four to eight independent experiments. *P < 0.05, **P < 0.01 versus control (Student's t test).

Male C57BL/6J mice [3] = assay: Serum GLP-1 concentration after oral administration of OC; format: in vivo, mouse; conditions: mice fasted 5 h, no sitagliptin pretreatment, blood 20 min later, five to seven mice
Experimental: (§2) Figure 3 Effect of intraperitoneal or oral administration of OC on serum GLP-1 concentration. (A) Mice were deprived of food for 5 h and then injected intraperitoneally with saline (control) or the indicated doses of recombinant ucOC, of GlaOC. Blood was collected 20 min later for determination of the serum concentration of GLP-1. Part of mice was orally administered with sitagliptin (1 µg/kg) 30 min before injection of OC. (B) Mice deprived of food for 5 h were treated orally with saline (control) or the indicated doses of ucOC or GlaOC. Blood samples collected 20 min later were assayed for serum GLP-1 concentration. All data are means ± SEM for five to seven mice. *P < 0.05, **P < 0.01 versus control (Student's t test).

Male C57BL/6J mice [4] = assay: Serum GLP-1 concentration after intraperitoneal administration of OC; format: in vivo, mouse
Experimental: as §2

[5] = mouse, in vivo
Experimental: Serum OC concentrations were measured with ELISA kit for mouse OC (Biomedical Technologies), which is formulated for both ucOC and GlaOC, with the two forms being discriminated with the use of hydroxyapatite. Serum (50 µl) was thus mixed with 10 mg of hydroxyapatite (Sigma-Aldrich) and rotated at 4 °C for 1 h, after which the hydroxyapatite (and bound GlaOC) was removed by centrifugation and the supernatant was assayed for ucOC.
Figure 5 Serum levels of total OC and ucOC after intraperitoneal or oral administration of ucOC or GlaOC. Serum levels of total OC (A) or ucOC (B) were measured 20 min after administration of ucOC or GlaOC at a dose of 7 µg/kg intraperitoneally (i.p.) or 10 µg/kg orally (p.o.) in mice that had been deprived of food for 5 h; black circles indicate values for individual mice, with the horizontal bars representing the mean values. *P < 0.05 versus saline-treated animals [one-way ANOVA followed by either Dunnett's multiple-comparison test (A) or Tukey's HSD post hoc test (B)].

[6] = Absorption of 125I-labeled ucOC into the systemic circulation (blood radioactivity); format: in vivo, mouse; conditions: n = 5 each
Experimental: An expression vector for a glutathione S-transferase-ucOC fusion protein was constructed by introduction of mouse OC cDNA into the vector pGEX-4T-1 (GE Healthcare, Buckinghamshire, UK). The fusion protein was produced in bacteria and purified with glutathione-Sepharose beads (GE Healthcare) according to standard procedures. The final washes of the beads were performed with a buffer containing 0.1% Triton X-114 (Sigma-Aldrich, St. Louis, MO) and then with the same buffer without detergent in order to remove endotoxin [17]. […] The purity of the ucOC preparation was assessed by sodium dodecyl sulfate-polyacrylamide gel electrophoresis with Tris-Tricine and staining with Coomassie blue, and the concentration and integrity of the protein were determined with an enzyme-linked immunosorbent assay (ELISA) kit for mouse OC (Biomedical Technologies, Stoughton, MA). […]
Figure 6 Absorption of ^125I-labeled ucOC into the systemic circulation. Mice were administered ^125I-labeled ucOC (5 µg/kg, 4,000 to 6,000 cpm) intraperitoneally (circles, n = 5) or orally (squares, n = 5), and blood was collected into tubes containing 5 mM EDTA (to prevent coagulation) at 30 and 60 min thereafter for measurement of radioactivity. The percentage of the administered radioactivity present in the circulation was calculated assuming a total blood volume of 2 ml. […]

[7] = cited from earlier work

N[C@@H](CC(=O)N1CCn2c(nnc2C(F)(F)F)C1)Cc1cc(F)c(F)cc1F [Sitagliptin, sitagliptin, reference compound]
Serum insulin concentration, sitagliptin alone (Male C57BL/6J mice [1]; mice fasted 5 h, sitagliptin 1 µg/kg orally): small increase in the serum insulin concentration

GlaOC: γ-carboxylated form of the bone-derived protein osteocalcin (ANA Spec) (YLGASVPSPDPLEPTREQCELNPACDELSDQYGLKTAYKRIYGITI; ends and bridges not checked; also: γ-carboxylated on three glutamic acid residues (places not given here); UniProt P86546 50-95, looked up)
Serum insulin concentration, i.p. 7 µg/kg alone (Male C57BL/6J mice [1]; mice fasted 5 h, 7 µg/kg i.p.): no effect on serum insulin | Serum insulin concentration, oral 10 µg/kg (Male C57BL/6J mice [1]; mice fasted 5 h): tended to increase serum insulin, although this effect did not achieve statistical significance | Serum GLP-1 level after tail vein injection of GlaOC (Male C57BL/6J mice [2]; fasted mice, data not shown): no effect | Serum insulin level after tail vein injection of GlaOC (Male C57BL/6J mice [2]; fasted mice, data not shown): no effect | Effect on GLP-1 secretion at the concentrations examined (STC-1 cells; 60 min): did not affect GLP-1 secretion | Serum GLP-1 concentration after oral administration (Male C57BL/6J mice [3]): a similar effect was apparent | Serum GLP-1 level, i.p., sitagliptin-pretreated mice (Male C57BL/6J mice [4]; mice fasted 5 h, oral sitagliptin 1 µg/kg 30 min before, i.p., blood 20 min later): did not increase the serum GLP-1 level

Osteocalcin (YLGASVPSPDPLEPTREQCELNPACDELSDQYGLKTAYKRIYGITI; ends and bridges not checked; cysteine pairing not given here; UniProt P86546 50-95, looked up) [osteocalcin, a peptide composed of 46 amino acids; form (uc- or Gla-) not specified at the place]
Absorption rate at fivefold higher oral dose [5]: 0.8% | Absorption rate at twofold higher oral dose [5]: 2%

^125I-labeled ucOC: ucOC iodinated with Na^125I as GST fusion, released with thrombin (YLGASVPSPDPLEPTREQCELNPACDELSDQYGLKTAYKRIYGITI; ends and bridges not checked; also: 125I label, site not given here; UniProt P86546 50-95, looked up)
Gross absorption, % of the administered radioactivity in the circulation at 30 min ([6]; 5 µg/kg (4,000 to 6,000 cpm) i.p. or orally, assuming total blood volume of 2 ml): 2 to 8% | Blood radioactivity at 60 min compared with 30 min ([6]; 5 µg/kg i.p. or orally): increased further or decreased to a small extent

calcitonin
Rate of absorption from the intestine into the bloodstream [7]: ~5%

exendin(9–39) [reference compound]
Antagonism of the exendin-4-induced increase in serum insulin (Male C57BL/6J mice [1]; exendin(9–39) 25 nmol/kg i.p. 30 min before exendin-4 25 nmol/kg i.p.): sensitive to prior injection of exendin(9–39) | Effect of exendin(9–39) on the sitagliptin-induced increase in serum insulin (Male C57BL/6J mice [1]; sitagliptin orally, exendin(9–39) i.p., data not shown): blocked by administration of exendin(9–39)

uncarboxylated osteocalcin (YLGASVPSPDPLEPTREQCELNPACDELSDQYGLKTAYKRIYGITI; ends and bridges not checked; cysteine pairing not given here; UniProt P86546 50-95, looked up) [ucOC, recombinant mouse uncarboxylated osteocalcin, cleaved from a glutathione S-transferase fusion protein produced in bacteria]
Serum insulin concentration, i.p. 7 µg/kg alone (Male C57BL/6J mice [1]; mice fasted 5 h, 7 µg/kg i.p.): significant increase | Serum insulin concentration, oral 10 µg/kg (Male C57BL/6J mice [1]; mice fasted 5 h): Essentially identical results | Serum insulin increase, i.p. 7 µg/kg with sitagliptin pretreatment (Male C57BL/6J mice [1]; oral sitagliptin 1 µg/kg 30 min before 7 µg/kg i.p.): enhanced by sitagliptin | Serum insulin increase, i.p. 7 µg/kg with sitagliptin and exendin(9–39) (Male C57BL/6J mice [1]; oral sitagliptin 1 µg/kg, 7 µg/kg i.p., exendin(9–39) 25 nmol/kg i.p.): abolished by exendin(9–39) | Serum concentration of GLP-1 at 30 min after i.v. injection (Male C57BL/6J mice [2]; 30 ng per animal, tail vein, mice fasted 5 h): further increased | Serum concentration of insulin after i.v. injection (Male C57BL/6J mice [2]; 30 ng per animal, tail vein, mice fasted 5 h, 15 and 30 min): increased as well | Serum concentration of GLP-1 at 15 min after i.v. injection (Male C57BL/6J mice [2]; 30 ng per animal, tail vein, mice fasted 5 h, four to six mice): significantly increased | Serum insulin concentration after i.v. 300 ng (Male C57BL/6J mice [2]; 300 ng per animal i.v., fasted mice, data not shown): no effect on the serum insulin concentration | Blood concentration after i.v. 300 ng (Male C57BL/6J mice [2]; mouse, in vivo, iv): 28 nM | Expected initial serum concentration after i.v. 30 ng (Male C57BL/6J mice [2]; mouse, in vivo, iv): ~30 ng/mL | Initial concentration in blood after i.v. 30 ng (Male C57BL/6J mice [2]; mouse, in vivo, iv): 2.7 nM | Effect on GLP-1 secretion at 30 ng/ml (STC-1 cells; 60 min, 30 ng/ml): no longer apparent | Effect on GLP-1 secretion at concentrations of >10 ng/ml (STC-1 cells; >10 ng/ml): markedly diminished | Serum GLP-1 concentration after oral administration (Male C57BL/6J mice [3]): increased the serum concentration of GLP-1 in a dose-dependent manner | Serum GLP-1 concentration, i.p., without sitagliptin (Male C57BL/6J mice [4]; mice fasted 5 h, blood 20 min after i.p. injection, no DPP-IV inhibitor pretreatment, five to seven mice): increase in the serum concentration of GLP-1, but with only statistically insignificance | Serum GLP-1 concentration, i.p. 7 µg/kg, sitagliptin-pretreated (Male C57BL/6J mice [4]; mice fasted 5 h, oral sitagliptin 1 µg/kg 30 min before, 7 µg/kg i.p., blood 20 min later): significant increase | Serum GLP-1 concentration, i.p. 10 µg/kg, sitagliptin-pretreated (Male C57BL/6J mice [4]; mice fasted 5 h, oral sitagliptin 1 µg/kg 30 min before, 10 µg/kg i.p., blood 20 min later): no such effect | Effect on GLP-1 secretion at intraperitoneal doses of >7 µg/kg (Male C57BL/6J mice [4]; mice, i.p. >7 µg/kg): markedly diminished
